Experimental data as given in patent publication US20250011445A1 (priority 2020, published 2025).
Like-named read-outs stand apart in the source and are kept apart here. *1 amine or outer side, *2 acyl side, *3 side chain or, on linkers, in order; H or OH if unused. Where a SMILES comes first, the peptide text is derived from it. Bridges are numbered along the chain shown (N, C = ends). Roman numbers before positions name the chains, in order. [ ]: non-standard residue; d: D form. The star is where a group is joined. Hexamethylenediamine = C(CCCN[*:2])CCN[*:1]; Dip = N[C@H](C(=O)O)C(c1ccccc1)c1ccccc1; Chg = N[C@H](C(=O)O)C1CCCCC1; NMeA = CN[C@@H](C)C(=O)O; Cbz = O=C(OCc1ccccc1)*; CH2F = FC*

Experiments:
[1] = test system: Primary human lung fibroblasts (MRC5 cells); assay: Death ligand-induced cell death in MRC5 cells, Sytox green, Incucyte; type: cell-based; conditions: for inhibition of TRAIL-induced cell death: MRC5 cells, FIG. 5
[2] = test system: Human pancreatic ductal epithelial cells (HPDECs); assay: Death ligand-induced cell death in HPDECs, Sytox green, Incucyte; type: cell-based
Tnfr1KOHoil-1E-KO mice = assay: Cell death-driven lethal skin inflammation (dermatitis) model, Tnfr1KO Hoil-1E-KO mice; type: in vivo; conditions: treated once inflammation has been initiated (from 30 days onwards)
reovirus 1/L (R1/L) = conditions: non-therapeutic inhibition; BOOP model and ARDS model; cited from earlier work
[3] = test system: Lung endothelial cells (LECs); type: cell-based, mouse; conditions: for sensitivity of cells to death ligand-induced cell death: 1 μg/ml Death Ligand, with zVAD
MRC5 cells = assay: Western blot of cell lysates of IFN-treated MRC5 cells; type: cell-based, human; conditions: IFNs for 24 h
Description: FIG. 6: MRC5 cells were treated with the indicated IFNs for 24 h before cells were lysed and cell lysates were analysed for presence of the indicated proteins by western blotting.

NIH3T3 cells = assay: Death ligand-induced cell death in NIH3T3 cells, Sytox green, Incucyte; type: cell-based, mouse; conditions: in presence of zVAD-fmk

With `CN[C@@H](C)C(=O)N[C@H](C(=O)N1CCC[C@H]1C(=O)N[C@H](C(=O)NCCCCCCNC(=O)[C@@H](NC(=O)[C@@H]1CCCN1C(=O)[C@@H](NC(=O)[C@H](C)NC)C1CCCCC1)C(c1ccccc1)c1ccccc1)C(c1ccccc1)c1ccccc1)C1CCCCC1` [BV6] (I: H-[NMeA][Chg]P[Dip] / II: H-[NMeA][Chg]P[Dip]; linker I:C-II:C via Hexamethylenediamine) the “toxicity in combination with TRAIL, IFN-gamma alone or IFN-gamma and TRAIL” value [1] was “enhanced toxicity” and the “sensitisation of cells by IAP antagonist alone” value ([1]; BV6 alone, FIG. 9) was “did not sensitise these cells”.

With `CN1C(=O)NC(Cc2c[nH]c3c(Cl)cccc23)C1=O` (stereo not shown) [Nec-1s, reference compound] the “inhibition of TRAIL-induced cell death” value [1] was “could not be blocked” and the “inhibition of cell death induced by TRAIL in combination with IFN-gamma” value [2] was “delayed the death of HPDECs induced by TRAIL in combination with IFN-gamma, it could not prevent it”.

In the case of `C[C@]12C=CC(=O)C=C1CC[C@H]1[C@@H]3C[C@@H](O)[C@](O)(C(=O)CO)[C@@]3(C)C[C@H](O)[C@@]12F` [Triamcinolone], the “ongoing skin inflammation / skin lesions, therapeutic treatment” value (Tnfr1KOHoil-1E-KO mice) is reported as “insufficient to achieve a meaningful therapeutic effect”.

In the case of `CC[C@H](C)[C@H](NC(=O)OCc1ccccc1)C(=O)N[C@@H](CCC(=O)OC)C(=O)N[C@H](C(=O)N[C@@H](CC(=O)OC)C(=O)CF)[C@@H](C)O` [zIETD-fmk] (Cbz-IE(OMe)TD(OMe)-CH2F), the “aberrant cell death, inflammation and fibrosis in lung tissue” value (reovirus 1/L (R1/L)) is listed as “reduces aberrant cell death, inflammation and fibrosis in lung tissue”.

For `COC(=O)C[C@H](NC(=O)[C@H](C)NC(=O)[C@@H](NC(=O)OCc1ccccc1)C(C)C)C(=O)CF` [zVAD-fmk, reference compound] (Cbz-Val-Ala-Asp(OMe)-CH2F), the “dependence of observed cell death on caspase inhibition” value ([3]; all death ligands) was “required inhibition of caspases by zVAD”, the “inhibition of cell death induced by the different combinations (BV6, TRAIL, IFN-gamma)” value ([1]; FIG. 9) was “completely inhibited” and the “inhibition of TRAIL-induced cell death” value [1] was “completely blocked”. The “inhibition of cell death induced by TRAIL in combination with IFN-gamma” value ([2]; HPDECs) was “delayed the death of HPDECs induced by TRAIL in combination with IFN-gamma, it could not prevent it”.

With IFN-gamma: type II IFN the “effect of IFN pre-treatment on sensitivity to death ligand-induced cell death” value ([3]; IFN overnight) was “sensitised these cells to FasL-mediated death”, the “effect of IFN pre-treatment on sensitivity to TRAIL-induced cell death” value ([1]; IFN overnight, then TRAIL 1 μg/ml) was “did not increase their sensitivity to cell death induction by TRAIL” and the “effect of IFN pre-treatment on sensitivity to TRAIL-induced cell death” value ([2]; IFN overnight, then TRAIL 100 ng/ml) was “did not increase their sensitivity to cell death induction by TRAIL”. The “effect of IFN pre-treatment on kinetics of TRAIL-induced cell death” value ([2]; compared to TRAIL alone) was “accelerated TRAIL-induced cell death”, the “FN14 expression (western blot)” value (MRC5 cells) was “upregulation of FN14” and the “MLKL expression (western blot)” value (MRC5 cells) was “strongly upregulated”. For the same molecule, the “sensitisation to death induction by TRAIL or FasL” value (NIH3T3 cells; IFN pretreatment 24 hr, 1 μg/ml Death Ligand) was “significantly sensitised them to death induction by TRAIL or FasL” and the “cell death induced by IFN alone” value (NIH3T3 cells; without death ligand) was “sufficient to significantly induce cell death”.

B1: FasL: Death Ligand, Fas ligand (protein, UniProt P48023 130-281, looked up)
Tumor necrosis factor ligand …: QIGHPSPPPEKKELRKVAHLTGKSNSRSMPLEWEDTYGIVLLSGVKYKKGGLVINETGLYFVYSKVYFRGQSCNNLPLSHKVYMRNSKYPQDLVMMEGKMMSYCTTGQMWARSSYLGAVFNLTSADHLYVNVSELSLVNFEESQTFFGLYKL
For B1, the “sensitivity of cells to death ligand-induced cell death” value (“sensitivity of cells” for short) [3] was “relatively insensitive”.

B2: TRAIL: Death Ligand, also known as Apo2L (protein, UniProt P50591 1-281, looked up)
Tumor necrosis factor ligand …: MAMMEVQGGPSLGQTCVLIVIFTVLLQSLCVAVTYVYFTNELKQMQDKYSKSGIACFLKEDDSYWDPNDEESMNSPCWQVKWQLRQLVRKMILRTSEETISTVQEKQQNISPLVRERGPQRVAAHITGTRGRSNTLSSPNSKNEKALGRKINSWESSRSGHSFLSNLHLRNGELVIHEKGFYYIYSQTYFRFQEEIKENTKNDKQMVQYIYKYTSYPDPILLMKSARNSCWSKDAEYGLYSIYQGGIFELKENDRIFVSVTNEHLIDMDHEASFFGAFLVG
With B2 the “sensitivity of cells” value [3] was “highly sensitive to cell death induction”, the “sensitivity of cells” value ([1]; 1 μg/ml Death Ligand) was “exquisitely sensitive to TRAIL-induced apoptosis” and the “sensitivity of cells” value ([2]; 100 ng/ml Death Ligand) was “exquisitely sensitive to TRAIL-induced apoptosis”.
